Results from article PMC2763920 (Electrophoresis, 2009).

Assays:
Fyn-SH3-SH2 = conditions: 100 V/cm for Ld of 30 cm; 100 and 200 V/cm for Ld of 40 cm; t1/2 not measured
GST-Fyn-SH3-SH2 [1] = assay: High-speed CE competition / binding, GST-Fyn-SH3-SH2 with Fluor-Fyn peptide
GST-Fyn-SH3-SH2 [2] = assay: NECEEM, GST-Fyn-SH3-SH2:Fluor-Fyn peptide complex; type: binding; conditions: 2 μM GST-Fyn-SH3-SH2, 100 nM Fluor-Fyn peptide, pH 8.5

## fluorescein-EEEEPQpYEEIPIYL [Fluor-Fyn peptide]
Fyn-SH3-SH2
  dissociation of the complex at low electric field (NECEEM): complete dissociation of the complex
GST-Fyn-SH3-SH2 [1]; 500 nM protein, 200 nM Fluor-Fyn peptide
  number of complexes detected (high-speed CE), GST-Fyn-SH2-SH3: two distinct complexes were detected
GST-Fyn-SH3-SH2 [1]; Fluor-Fyn peptide 50 nM to 700 nM, protein 500 nM
  complex 1-to-complex 2 ratio with increasing peptide concentration: decreases with increasing peptide concentration
GST-Fyn-SH3-SH2 [1]; GST-Fyn-SH3-SH2 0.1 μM to 0.5 μM, Fluor-Fyn peptide 200 nM
  protein concentration dependency of complex formation: low range: complex 2 increases
GST-Fyn-SH3-SH2 [1]; for t1/2 of 22 s and separation time of 3.8 s
  complex expected to dissociate over the course of separation: 2%
GST-Fyn-SH3-SH2 [2]
  complexes observed (NECEEM): two incompletely resolved peaks
